BindingDB's records for doi:10.7270/Q28G8J4C (Broad Institute, 2009)

Target: T1, POsterior Segregation (Caenorhabditis elegans, UniProt G5EF15)
T1 sequence (G5EF15 whole entry): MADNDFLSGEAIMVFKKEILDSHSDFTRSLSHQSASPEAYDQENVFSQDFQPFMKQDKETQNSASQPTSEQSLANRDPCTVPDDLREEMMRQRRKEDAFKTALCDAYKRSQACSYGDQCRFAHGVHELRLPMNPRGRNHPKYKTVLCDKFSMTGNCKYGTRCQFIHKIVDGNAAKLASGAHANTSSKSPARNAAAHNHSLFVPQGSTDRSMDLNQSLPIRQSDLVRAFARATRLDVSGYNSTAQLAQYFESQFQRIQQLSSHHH
Assay: inhibitors of POS-1/mex-3 RNA binding, dose response, biochemical, fluorescence polarization (AID 1964)

Q: How did the EC50 turn out when `O=C1NC(=O)N(CCc2ccc(F)cc2)C(=O)C1=CNNC(=O)c1ccccc1` [N'-[(E)-[1-[2-(4-fluorophenyl)ethyl]-2,4,6-trioxo-1,3-diazinan-5-ylidene]methyl]benzohydrazide] was run?
A: > 300 µM

Q: How did the EC50 turn out when `O=C1NC(=O)N(CCc2ccccc2)C(=O)C1=CNNC(=O)c1ccncc1` [N'-[(E)-[2,4,6-trioxo-1-(2-phenylethyl)-1,3-diazinan-5-ylidene]methyl]-4-pyridinecarbohydrazide] was run?
A: > 300 µM

Q: Which EC50 does the source give for `C/N=c1\ccc2nc3ccccc3n(C)c-2c1` [N,10-dimethyl-2-phenazin-10-iumamine;perchlorate] here?
A: 20.5 µM

Q: How did the EC50 turn out when `O=[N+]([O-])c1ccc(/N=N/c2ncc[nH]2)cc1` [N-(imidazol-2-ylideneamino)-4-nitroaniline] was run?
A: 69.1 µM

Q: `COc1ccc(N=C(C(=C(Cl)C(Cl)Cl)[N+](=O)[O-])n2nnc3ccccc32)cc1` [N-[(1E)-1-(1-benzotriazolyl)-3,4,4-trichloro-2-nitrobuta-1,3-dienyl]-4-methoxyaniline] was tested. Which EC50 did it give?
A: 88.5 µM

Q: `COc1cccc(C2C3=C(CC(c4ccco4)CC3=O)OC(=N)C2C#N)c1OCc1ccc(F)cc1` (stereo unspecified) [SMR000021029] was tested. Which EC50 did it give?
A: > 300 µM

Q: `CCN(CC)c1ccc(C=NC(C#N)C(=N)C#N)cc1` (stereo unspecified) [SMR000023871] was tested. Which EC50 did it give?
A: 281 µM

Q: With `COc1ccc(C2CC(c3ccc(Br)s3)=Nc3ncnn32)cc1OC` (stereo unspecified) [SMR000032927] as the compound, how does the EC50 read?
A: 7.82 µM

Q: `Cc1ccc(C2C3CN(C(C)C)CCC3=C(C#N)C(=N)C2(C#N)C#N)cc1` (stereo unspecified) [SMR000034220] was tested. Which EC50 did it give?
A: 7.15 µM

Q: For `Cc1cc(O)c(C(C)C)cc1Nc1csc(=O)[nH]1` [SMR000034713], which EC50 is on record?
A: 38.9 µM

Q: Which EC50 does the source give for `CC1=NC(c2ccccc2)C(C#N)(C#N)C(C#N)(C#N)C1` (stereo unspecified) [SMR000037705] here?
A: 3.14 µM

Q: For `COc1cc(OC)c(C2C3=C(CC(C)(C)CC3=O)OC(=N)C2C#N)cc1OC` (stereo unspecified) [SMR000054706], which EC50 is on record?
A: > 300 µM

Q: For `C=c1[nH]n(-c2cccc(C(=O)O)c2)c(=O)c1=CC=Cc1ccco1` [SMR000113614], which EC50 is on record?
A: 19.9 µM

Q: `COc1ccc(C=C2CCCC(C(=O)C(F)(F)F)C2=O)cc1` (stereo unspecified) [SMR000142699] was tested. Which EC50 did it give?
A: 36 µM

Q: Which EC50 does the source give for `Oc1ccc2ccccc2c1CN=Nc1nnc(-c2ncc[nH]2)c2ccccc12` [SMR000151639] here?
A: 48.7 µM

Q: For `CN1CCC2(CC1)C(C#N)C(=N)NC(=S)C2C#N` (stereo unspecified) [SMR000211480], which EC50 is on record?
A: 8.05 µM

Q: `O=C(c1ccccc1)c1[nH]n(-c2ccccc2)c2c(O)n(-c3ccccc3Cl)c(=O)c1-2` [SMR000212371] was tested. Which EC50 did it give?
A: > 300 µM

Q: For `COc1ccc(N=CCC(=O)c2ccc(C)cc2)cc1OC` [SMR000269732], which EC50 is on record?
A: > 300 µM

Q: With `CCCCN1C(=O)/C(=C2/Sc3ccccc3N2C)SC1=Nc1nnc[nH]1` [SMR000282142] as the compound, how does the EC50 read?
A: 58.7 µM

Q: `Oc1ccc(CN=Nc2ncnc3nc[nH]c23)cc1` [SMR000320358] was tested. Which EC50 did it give?
A: > 300 µM

Q: With `COC(=O)c1ccc(-n2c(C)cc(CN=Nc3nc(C)cc(=O)[nH]3)c2C)cc1` [SMR000364461] as the compound, how does the EC50 read?
A: > 300 µM

Q: How did the EC50 turn out when `O=C(N/N=C/C1C=C(Cl)C=C([N+](=O)[O-])C1=O)c1ccccc1NS(=O)(=O)c1cccs1` (stereo unspecified) [SMR000364876] was run?
A: 282 µM

Q: `Cc1cc(C(=O)NN=CC2C=C(Cl)C=C([N+](=O)[O-])C2=O)[nH]n1` (stereo unspecified) [SMR000414694] was tested. Which EC50 did it give?
A: > 300 µM

Q: With `Cn1c(=O)[nH]c(=O)c2c1nc(N=NC=C(Br)Cc1ccccc1)n2CCO` [SMR000436442] as the compound, how does the EC50 read?
A: 206 µM

Q: How did the EC50 turn out when `COc1ccccc1N1C(=O)NC(=O)C(=Cc2c[nH]c3ccccc23)C1=O` [SMR000495900] was run?
A: > 300 µM

Q: With `Cc1cc(-c2ccccc2)nc(N=NCc2ccc(O)cc2O)n1` [SMR000513422] as the compound, how does the EC50 read?
A: > 300 µM

Q: Which EC50 does the source give for `Cc1[nH]n(C(N)=S)c(=O)c1N=Nc1c(Cl)cc([N+](=O)[O-])cc1Cl` [SMR000514008] here?
A: > 300 µM

Q: How did the EC50 turn out when `CC1(C)CC(=O)C2=C(C1)OC(=N)C(C#N)C2c1ccc2c(c1)OCO2` (stereo unspecified) [SMR000514966] was run?
A: > 300 µM

Q: With `O=C1C=CC(/C=C/c2nc(O)c([N+](=O)[O-])c(=O)[nH]2)C=C1O` (stereo unspecified) [SMR000524347] as the compound, how does the EC50 read?
A: 250 µM

Q: For `c1ccc(C2=NNC(c3ccccn3)N=N2)nc1` (stereo unspecified) [SMR000549436], which EC50 is on record?
A: 25.3 µM

Q: Which EC50 does the source give for `O=C1NC(=O)N(c2ccc(F)cc2)C(=O)C1=Cc1c[nH]c2ccccc12` [SMR000556295] here?
A: 52.2 µM

Q: With `Cn1cc(C=C2C(=O)NC(=O)N(c3ccccc3)C2=O)c2ccccc21` [SMR000559087] as the compound, how does the EC50 read?
A: 5.28 µM

Q: For `O=C1N=C(N2C=CC(c3ccncc3)C=C2)C(=CN=NC(=O)c2ccccc2O)S1` [SMR000646350], which EC50 is on record?
A: 11.9 µM

Q: How did the EC50 turn out when `CN(C)[C@@H]1C(=O)C(C(N)=O)C(=O)[C@@]2(O)C(=O)C3C(=O)c4c(O)cccc4[C@@](C)(O)C3C(O)C12` (stereo partly specified) [SMR000875333] was run?
A: 54.1 µM

Q: For `CCOC(=O)c1c(NC=C2C(=O)NC(=S)NC2=O)sc(C)c1C` [ethyl 2-[[4,6-bis(oxidanylidene)-2-sulfanylidene-1,3-diazinan-5-yl]methylideneamino]-4,5-dimethyl-thiophene-3-carboxylate], which EC50 is on record?
A: > 300 µM

Q: For `COC(=O)c1[nH]c2cc(OC)c(OC)cc2c1CN=Nc1ccccc1` [methyl (3Z)-5,6-dimethoxy-3-[(2-phenylhydrazinyl)methylidene]indole-2-carboxylate], which EC50 is on record?
A: 20 µM
